According to patent US10385057B2, “Pyrazole compounds and methods of making and using same” (Lundbeck La Jolla Research Center, Inc., priority 2015, dated 2019):

How the values were obtained:
MAGL = molecular target: T1, MAGL (Mus musculus, UniProt O35678); experiment: In vitro competitive activity-based protein profiling, mouse MAGL; format: biochemical; details: for inhibition at 1 µM: read-out: MAGL % inh. 1 μM (mouse)
T1 construct: mouse brain membrane fraction or cell lysates for mouse assays; from tissue
T1 sequence (O35678 1-303): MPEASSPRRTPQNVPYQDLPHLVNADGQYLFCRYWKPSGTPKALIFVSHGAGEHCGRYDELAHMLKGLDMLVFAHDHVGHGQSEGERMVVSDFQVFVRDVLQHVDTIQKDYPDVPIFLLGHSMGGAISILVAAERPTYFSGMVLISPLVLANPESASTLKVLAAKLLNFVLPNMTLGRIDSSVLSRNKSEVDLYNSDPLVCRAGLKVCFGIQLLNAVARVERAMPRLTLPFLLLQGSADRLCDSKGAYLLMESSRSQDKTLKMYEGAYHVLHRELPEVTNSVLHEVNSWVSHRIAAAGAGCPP
Procedure, shortened: (§1)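 Mouse brain membranes or cell lysates (mouse) and human prefrontal cortex or cell membrane fractions (human), 1.0 mg/mL protein, preincubated with inhibitor 30 min at 37 °C, then FP-Rh or HT-01 probe 30 min at 37 °C. SDS-PAGE; MAGL and FAAH activity from in-gel fluorescence band intensity.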

FAAH = molecular target: T2, FAAH (Mus musculus, UniProt O08914); experiment: In vitro competitive activity-based protein profiling, mouse FAAH; format: biochemical; details: for inhibition at 1 µM: read-out: FAAH % inh. 1 μM (mouse)
T2 construct: mouse brain membrane fraction or cell lysates for mouse assays; from tissue
T2 sequence (O08914 1-579): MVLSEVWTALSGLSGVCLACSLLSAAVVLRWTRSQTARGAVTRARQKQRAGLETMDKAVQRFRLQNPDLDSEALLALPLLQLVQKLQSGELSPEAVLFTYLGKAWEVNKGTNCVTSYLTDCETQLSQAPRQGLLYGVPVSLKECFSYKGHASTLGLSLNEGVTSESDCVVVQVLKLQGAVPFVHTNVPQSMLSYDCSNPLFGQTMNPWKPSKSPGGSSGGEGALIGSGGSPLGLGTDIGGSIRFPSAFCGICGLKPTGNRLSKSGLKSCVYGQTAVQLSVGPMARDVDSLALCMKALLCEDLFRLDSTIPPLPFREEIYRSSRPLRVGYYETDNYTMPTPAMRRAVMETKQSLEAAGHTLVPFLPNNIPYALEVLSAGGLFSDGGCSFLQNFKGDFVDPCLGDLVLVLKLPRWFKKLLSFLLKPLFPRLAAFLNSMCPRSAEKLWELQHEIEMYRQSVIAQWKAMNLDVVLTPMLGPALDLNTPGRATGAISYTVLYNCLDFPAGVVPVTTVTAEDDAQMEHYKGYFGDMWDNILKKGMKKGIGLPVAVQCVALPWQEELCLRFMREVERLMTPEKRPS
Procedure, shortened: as §1

| IC50 (MAGL) | inhibition at 1 µM (MAGL) | IC50 (FAAH) | inhibition at 1 µM (FAAH) | SMILES |
| --- | --- | --- | --- | --- |
| ≤ 100 nM | ≥ 75% | ≤ 100 nM | ≥ 75% | O=C(N1CC2CN(Cc3ccc(F)cc3)CC2C1)n1cc(C(F)(F)F)cn1 (centres unmarked) [Example 146, (5-(4-fluorobenzyl)hexahydropyrrolo[3,4-c]pyrrol-2(1H)-yl)(4-(trifluoromethyl)-1H-pyrazol-1-yl)methanone] |
| ≤ 100 nM | ≥ 75% | ≤ 100 nM | ≥ 75% | Cc1ccc(CN2CC3CN(C(=O)n4cc(C(F)(F)F)cn4)CC3C2)cc1 (centres unmarked) [Example 147, (5-(4-methylbenzyl)hexahydropyrrolo[3,4-c]pyrrol-2(1H)-yl)(4-(trifluoromethyl)-1H-pyrazol-1-yl)methanone] |
| 100 to 1000 nM | ≥ 75% | ≤ 100 nM | ≥ 75% | COc1ccc(CN2CC3CN(C(=O)n4cc(C(F)(F)F)cn4)CC3C2)cc1 (centres unmarked) [Example 148, (5-(4-methoxybenzyl)hexahydropyrrolo[3,4-c]pyrrol-2(1H)-yl)(4-(trifluoromethyl)-1H-pyrazol-1-yl)methanone] |
| 100 to 1000 nM | ≥ 75% | ≤ 100 nM | ≥ 75% | O=C(N1CC2CN(Cc3cccc(Cl)c3)CC2C1)n1cc(C(F)(F)F)cn1 (centres unmarked) [Example 149, (5-(3-chlorobenzyl)hexahydropyrrolo[3,4-c]pyrrol-2(1H)-yl)(4-(trifluoromethyl)-1H-pyrazol-1-yl)methanone] |
| ≤ 100 nM | ≥ 75% | ≤ 100 nM | ≥ 75% | O=C(N1CC2CN(Cc3cccc(F)c3)CC2C1)n1cc(C(F)(F)F)cn1 (centres unmarked) [Example 150, (5-(3-fluorobenzyl)hexahydropyrrolo[3,4-c]pyrrol-2(1H)-yl)(4-(trifluoromethyl)-1H-pyrazol-1-yl)methanone] |
| ≤ 100 nM | ≥ 75% | ≤ 100 nM | ≥ 75% | O=C(N1CC2CN(Cc3ccccc3Cl)CC2C1)n1cc(C(F)(F)F)cn1 (centres unmarked) [Example 151, (5-(2-chlorobenzyl)hexahydropyrrolo[3,4-c]pyrrol-2(1H)-yl)(4-(trifluoromethyl)-1H-pyrazol-1-yl)methanone] |
| ≤ 100 nM | ≥ 75% | ≤ 100 nM | ≥ 75% | O=C(N1CC2CN(Cc3ccccc3F)CC2C1)n1cc(C(F)(F)F)cn1 (centres unmarked) [Example 152, (5-(2-fluorobenzyl)hexahydropyrrolo[3,4-c]pyrrol-2(1H)-yl)(4-(trifluoromethyl)-1H-pyrazol-1-yl)methanone] |
| ≤ 100 nM | ≥ 75% | ≤ 100 nM | ≥ 75% | Cc1ccccc1CN1CC2CN(C(=O)n3cc(C(F)(F)F)cn3)CC2C1 (centres unmarked) [Example 153, (5-(2-methylbenzyl)hexahydropyrrolo[3,4-c]pyrrol-2(1H)-yl)(4-(trifluoromethyl)-1H-pyrazol-1-yl)methanone] |
| ≤ 100 nM | ≥ 75% | ≤ 100 nM | ≥ 75% | COc1ccccc1CN1CC2CN(C(=O)n3cc(C(F)(F)F)cn3)CC2C1 (centres unmarked) [Example 154, (5-(2-methoxybenzyl)hexahydropyrrolo[3,4-c]pyrrol-2(1H)-yl)(4-(trifluoromethyl)-1H-pyrazol-1-yl)methanone] |
| ≤ 100 nM | ≥ 75% | ≤ 100 nM | ≥ 75% | O=C(N1CC2CN(Cc3ccccc3C(F)(F)F)CC2C1)n1cc(C(F)(F)F)cn1 (centres unmarked) [Example 155, (4-(trifluoromethyl)-1H-pyrazol-1-yl)(5-(2-(trifluoromethyl)benzyl)hexahydropyrrolo[3,4-c]pyrrol-2(1H)-yl)methanone] |
| ≤ 100 nM | ≥ 75% | 100 to 1000 nM | ≥ 75% | O=C(N1CC2CN(Cc3ccccc3N3CCCC3)CC2C1)n1cc(C(F)(F)F)cn1 (centres unmarked) [Example 156, (5-(2-(pyrrolidin-1-yl)benzyl)hexahydropyrrolo[3,4-c]pyrrol-2(1H)-yl)(4-(trifluoromethyl)-1H-pyrazol-1-yl)methanone] |
| ≤ 100 nM | ≥ 75% | 100 to 1000 nM | ≥ 75% | O=C(N1CC2CN(Cc3ccccc3N3CCOCC3)CC2C1)n1cc(C(F)(F)F)cn1 (centres unmarked) [Example 157, (5-(2-morpholinobenzyl)hexahydropyrrolo[3,4-c]pyrrol-2(1H)-yl)(4-(trifluoromethyl)-1H-pyrazol-1-yl)methanone] |
|  | ≥ 75% |  | ≥ 75% | CN(Cc1ccc(Oc2ccccc2)cc1)[C@@H]1C[C@@H]2CN(C(=O)n3cc(Cl)cn3)C[C@@H]2C1 [Example 158, (4-chloro-1H-pyrazol-1-yl)(cis-5-(methyl(4-phenoxybenzyl)amino)hexahydrocyclopenta[c]pyrrol-2(1H)-yl)methanone] |
|  | ≥ 75% |  | ≥ 75% | CN(Cc1ccc(Oc2ccccc2)cc1)[C@H]1C[C@@H]2CN(C(=O)n3cc(Cl)cn3)C[C@@H]2C1 [Example 159, (4-chloro-1H-pyrazol-1-yl)(trans-5-(methyl(4-phenoxybenzyl)amino)hexahydrocyclopenta[c]pyrrol-2(1H)-yl)methanone] |
|  | ≥ 75% |  | ≥ 75% | CN(Cc1ccc(Oc2cccnc2)cc1)[C@@H]1C[C@@H]2CN(C(=O)n3cc(Cl)cn3)C[C@@H]2C1 [Example 160, (4-chloro-1H-pyrazol-1-yl)(cis-5-(methyl(4-(pyridin-3-yloxy)benzyl)amino)hexahydrocyclopenta[c]pyrrol-2(1H)-yl)methanone] |
|  | ≥ 75% |  | ≥ 75% | CN(Cc1ccc(Oc2cccnc2)cc1)[C@H]1C[C@@H]2CN(C(=O)n3cc(Cl)cn3)C[C@@H]2C1 [Example 161, (4-chloro-1H-pyrazol-1-yl)(trans-5-(methyl(4-(pyridin-3-yloxy)benzyl)amino)hexahydrocyclopenta[c]pyrrol-2(1H)-yl)methanone] |
| ≤ 100 nM | ≥ 75% | ≤ 100 nM | ≥ 75% | CN(Cc1cccc(Oc2ccccc2)c1)[C@H]1C[C@@H]2CN(C(=O)n3cc(Cl)cn3)C[C@@H]2C1 [Example 162, (4-chloro-1H-pyrazol-1-yl)(trans-5-(methyl(3-phenoxybenzyl)amino)hexahydrocyclopenta[c]pyrrol-2(1H)-yl)methanone] |
| ≤ 100 nM | ≥ 75% | ≤ 100 nM | ≥ 75% | CN(Cc1cccc(Oc2cccnc2)c1)[C@H]1C[C@@H]2CN(C(=O)n3cc(Cl)cn3)C[C@@H]2C1 [Example 163, (4-chloro-1H-pyrazol-1-yl)(trans-5-(methyl(3-(pyridin-3-yloxy)benzyl)amino)hexahydrocyclopenta[c]pyrrol-2(1H)-yl)methanone] |
| ≤ 100 nM | ≥ 75% | ≤ 100 nM | ≥ 75% | CN(Cc1cccc(Oc2ccccc2)c1)[C@@H]1C[C@@H]2CN(C(=O)n3cc(Cl)cn3)C[C@@H]2C1 [Example 164, (4-chloro-1H-pyrazol-1-yl)(cis-5-(methyl(3-phenoxybenzyl)amino)hexahydrocyclopenta[c]pyrrol-2(1H)-yl)methanone] |
| 100 to 1000 nM | ≥ 75% | ≤ 100 nM | ≥ 75% | CN(Cc1cccc(Oc2cccnc2)c1)[C@@H]1C[C@@H]2CN(C(=O)n3cc(Cl)cn3)C[C@@H]2C1 [Example 165, (4-chloro-1H-pyrazol-1-yl)(cis-5-(methyl(3-(pyridin-3-yloxy)benzyl)amino)hexahydrocyclopenta[c]pyrrol-2(1H)-yl)methanone] |
| 100 to 1000 nM | ≥ 75% | 100 to 1000 nM | ≥ 75% | O=C(N1CCC2(CCN(Cc3ccc(F)cc3)C2)C1)n1cc(C(F)(F)F)cn1 (centres unmarked) [Example 166, (7-(4-fluorobenzyl)-2,7-diazaspiro[4.4]nonan-2-yl)(4-(trifluoromethyl)-1H-pyrazol-1-yl)methanone] |
| 100 to 1000 nM | ≥ 75% | 100 to 1000 nM | ≥ 75% | COc1ccc(CN2CCC3(CCN(C(=O)n4cc(C(F)(F)F)cn4)C3)C2)cc1 (centres unmarked) [Example 167, (7-(4-methoxybenzyl)-2,7-diazaspiro[4.4]nonan-2-yl)(4-(trifluoromethyl)-1H-pyrazol-1-yl)methanone] |
